In US11466255B2, “Methods and compositions for converting non-endocrine pancreatic tissue into insulin-producing cells” (UNIVERSITY OF MIAMI, priority 2015, dated 2022):

System: hNEPT
Assay: C-peptide content (ELISA, normalised to DNA) of hNEPT
Format: cell-based, human
Description: hNEPT culture: Human islets were isolated at the DRI's cGMP facility following methods already described54, and hNEPT samples (2-4 ml) were obtained as an isolation byproduct. The cells were washed and seeded on tissue culture-treated plates in FBS- and trypsin inhibitor-supplemented RPMI 1640 medium (Gibco-Life Technologies, Grand Island, N.Y.). After 48 h, floating cells were removed with fresh medium replacement. The following day, cultures were either treated with 100 ng/ml BMP-7 (ProSpec-Tany TechnoGene; Ness Ziona, Israel) or remained in the starting medium as controls. Cells were allowed to grow 4-5 days and then the serum-containing medium was replaced by serum-free Advanced RPMI 1640 (Gibco-Life Technologies, Grand Island, N.Y.). Four to five days later the cells were either subjected to static incubation to evaluate their ability to respond to changing glucose concentration or collected for further assessments (such as C-peptide content, immunohistochemistry or cellular composition) or transplantation.
Glucose-stimulated insulin release (GSIR) and total insulin determination: GSIR was performed in six-well plate cultures. BMP-7-treated samples and untreated controls were washed twice with DMEM medium containing 2.5 mM glucose (Low glucose medium or L-medium). Upon addition of 2 ml of the same medium, the cells were cultured for 1 h at 37° C. to bring their insulin secretion to baseline. After 2 more washes, 1 ml of L-medium was added and the cells were returned to the incubator for 1 h. At the end of incubation period, the medium was collected and the cells exposed for 1 h to 1 ml of 20 mM glucose DMEM medium (high glucose medium or H-medium). After the collection of the H-medium supernatant, the cells were washed three times with L-medium and cultured again in low glucose conditions for 1 h. As before, supernatant was collected at the end of the incubation period. The second low glucose incubation is necessary to confirm that the cells are responding to glucose concentration changes in a physiological manner and not dumping insulin. After the last incubation, the cells were collected, washed in PBS and lysed with 1 ml of T-Per (Thermo Scientific, Rockford, Ill.). The lysates and the supernatants from GSIR test were evaluated with ELISA for C-peptide content (Mercodia, Uppsala, Sweden) following manufacturer's instructions. DNA content of the lysates was used to normalize the results (Pico-Green dsDNA Assay Kit, Life Technologies-Molecular Probes, Grand Island, N.Y.).

| Molecule | reduction of the BMP-7-mediated induction of C-peptide (dorsomorphin added to BMP-7, n=4) | C-peptide production induction vs. t=0 (BMP-4 vs BMP-7 comparison, n=6, P=0.43) |
| --- | --- | --- |
| c1cc(-c2cnn3cc(-c4ccc(OCCN5CCCCC5)cc4)cnc23)ccn1 [dorsomorphin, reference compound] | ~3 fold | – |
| BMP-4: member of the BMPs family of proteins that signals through ALK3 and ALK6; SEQ ID NO:3 (protein, listed as Homo sapiens, fragment of BMP-4) SPKHHSQRARKKNKNCRRHSLYVDFSDVGWNDWIVAPPGYQAFYCHGDCPFPLADHLNSTNHAIVQTLVNSVNSSIPKACCVPTELSAISMLYLDEYDKVVLKNYQEMVVEGCGCR | – | 198±62.8 fold |
